Reference: patent US8148431B2, “Osteogenesis promoter containing β-cryptoxanthin as the active ingredient” (Kemin Health, L.C., priority 2002, dated 2012)
Marks after values point to notes of the source that are not given here.

Key:
[1] = test system: diaphysis tissue of the femur; test: Bone resorption (PTH or prostaglandin E2): bone calcium level in cultured diaphysis tissue; format: cell-based, Wistar male rats
Protocol: (§1) The femurs were extracted from rats (Wistar male rats; 4 to 5 weeks old) (purchased from Japan SLC Co., Ltd. and fed with solid Oriental yeast (MF)) under anesthesia with ether under a germfree condition. The femurs were each washed with 0.25 M sucrose solution, and then divided into the diaphysis (cortical bone) and metaphysis (cancellous bone). The bone tissue pieces were cultured in a culture medium (Dulbecco's modified culture medium containing 5% of glucose; serum-free medium) containing. β-cryptoxanthin, etc. at […] in an incubator filled with 5% CO2-95% air for 48 hours. β-cryptoxanthin used was “β-cryptoxanthin” of Extrasynthase Co., cycloheximide used was “Cycloheximide” of Sigma Co. Ltd., β-carotene was “β-carotene” of Sigma ? , xanthine was “Xanthine” of Sigma Co, Ltd., parathormone was “Parathormone” of Sigma Co. Ltd. and prostaglandin E2 was “Prostaglandin E2” of Sigma Co. Ltd. In the control, only the culture medium was used without β-cryptoxanthin or the like.
(§2) Bone calcium level in the bone tissue was determined. After the culture in the incubator, the tissue pieces were washed with 0.25 M sucrose solution and dried and then the bone was weighed. Then concentrated nitric acid was added to the tissue pieces. After the incineration at 120° C. for 12 hours, the bone calcium level was determined with an atomic absorption photometer (“Perkin-Elmer 303” of Perkin-Elmer Co.).
The bone mineral dissolution-inhibiting effect of β-cryptoxanthin was examined. […] PTH also has a pathophysiologic role on the expression of osteoporosis caused by the aging. It is known that prostaglandin E2 also causes physiologic bone mineral dissolution. The diaphysis or metaphysis tissue of the femur was cultured in the presence of 10^−7 M PTH or 10^−5 M prostaglandin E2 for 48 hours and then calcium level in the bone tissue was determined. In another experiment, the culture was conducted in the same manner as that described above in the coexistence of them and β-cryptoxanthin (10^−8 M to 10^−6 M) and then calcium level in the bone tissue was determined. In each test group, the determination was conducted 6 to 8 times and the results were represented by the average value and the standard error. The significant difference was determined by Student's t-test. The result was compared with that of the control. When P value was not higher than 0.01 (*) as compared with the control or it is not higher than 0.1 (#) as compared with that of prostaglandin E2, the results were statistically significant.

[2] = test system: metaphysis tissue of the femur (cancellous bone); test: Bone DNA level in cultured femoral metaphysis tissue pieces; format: cell-based, Wistar male rats; settings: for Bone DNA level: metaphysis tissue, mean ± SE
Protocol: as §1
(§3) DNA level was determined as an index of the number of cells in the bone tissue. After the culture in an incubator, the tissue pieces were washed with 0.25 M sucrose solution and then the wet weight of them was determined. They were pulverized in 4 ml of 0.1 N NaOH. After the osmosis at 4° C. for 24 hours, the liquid mixture was centrifuged. The supernatant was taken as the sample and determined by a method of Ceriotti et al. (J. Biol. Chem., 241; 34-77, 1951). Namely, 1 ml of concentrated hydrochloric acid and 1 ml of 0.04% indole solution were added to 2 ml of the sample and then the resultant mixture was heated to 100° C. in boiling water. After quenching followed by the extraction with 4 ml of chloroform, the chloroform layer was taken to determine bone DNA level with a spectrophotometer (490 nm).
(§4) The bone component-increasing effect of β-cryptoxanthin was examined. The diaphysis and metaphysis tissue of the femur was cultured in the above-described culture medium containing β-cryptoxanthin ([…]) for 48 hours. Calcium level in the bone tissue, alkaline phosphatase activity (enzyme for accelerating the bone calcification) and the amount of deoxyribonucleic acid (DNA; index of number of cells in the bone tissue) were determined by the same methods as in Example 1. In each test group, the determination vas conducted 6 to 8 times and the results were represented by the average value and the standard error. The significant difference was determined by Student's t-test. The result was compared with that of the control. When P value was not higher than 0.01 (**) or not higher than 0.05 (*), the results were statistically significant.

[3] = test system: rats, femoral diaphysis tissue; test: Oral administration to rats: bone DNA level in diaphysis tissue; format: in vivo, Wistar male rats; settings: for Bone DNA level: diaphysis tissue
Protocol: as §3
(§5) A solution of β-cryptoxanthin in corn oil having one of three kinds of concentration (10, 25 and 50 μg/ml corn oil) was orally administered to rats (Wistar male rats; 4 to 5 weeks old) in an amount/100 g body weight with a probe once a day for 7 days. The rats were sacrificed 24 hours after the final administration. The femurs were excised. The muscles, etc. were taken out and each femur was divided into diaphysis and metaphysis to determine the bone components.
(§6) Tests were conducted to examine whether the bone components are increased by the oral administration of β-cryptoxanthin to rats or not. β-cryptoxanthin was administered for 7 days (10, 25 or 50 μg/100 g body weight/day) and then calcium level in the bone tissue, determination of alkaline phosphatase activity (enzyme for the acceleration of the calcification of bones) and the amount of deoxyribonucleic acid (DNA: index of the number of the cells in the bone tissue) were determined by the same methods as those in Example 1. In each test group, the determination was conducted 6 times and the results were represented by the average value and the standard error. The significant difference was determined by Student's t-test. The result was compared with that of the control. When P value was not higher than 0.01 (*) as compared with the control, the results were statistically significant.

[4] = test system: rats, femoral diaphysis tissue; test: Oral administration to rats: bone calcium level in diaphysis tissue; format: in vivo, Wistar male rats; settings: for Bone calcium level: diaphysis tissue
Protocol: as §2, §5, §6

[5] = test system: diaphysis tissue of the femur (cortical bone); test: Bone DNA level in cultured femoral diaphysis tissue pieces; format: cell-based, Wistar male rats; settings: for Bone DNA level: diaphysis tissue, mean ± SE
Protocol: as §1, §3, §4

[6] = 10^−7 to 10^−5 M, 48 h culture, vs control
[7] = Table 2 (protein synthesis inhibitor experiment), 10^−6 M (each agent), n=6
[8] = β-cryptoxanthin 10^−6 M with cycloheximide
[9] = oral 10 μg/100 g body weight/day for 7 days
[10] = oral 25 μg/100 g body weight/day for 7 days
[11] = oral 50 μg/100 g body weight/day for 7 days

CC1=C(/C=C/C(C)=C/C=C/C(C)=C/C=C/C=C(C)/C=C/C=C(C)/C=C/C2=C(C)C[C@@H](O)CC2(C)C)C(C)(C)CCC1 [β-cryptoxanthin]
Control of prostaglandin E2-caused reduction of calcium level in the bone tissue (in words) ([1]; diaphysis tissue, β-cryptoxanthin 10^−5 to 10^−6 M (so in the source) with prostaglandin E2 10^−5 M): completely controlled
Control of PTH-caused reduction of calcium level in the diaphysis tissue (in words) ([1]; β-cryptoxanthin 10^−8 to 10^−6 M in the presence of PTH): significantly controlled
Effect on DNA level in the metaphysis tissue (in words) [2, 6]: significantly increased
Bone DNA level [2, 7]: 5.401 ± 0.188* mg/g bone wet weight
Bone DNA level ([2]; 10^−5 M, 48 h culture): 5.584 ± 0.530** mg/g bone wet weight
Bone DNA level ([2]; 10^−6 M, 48 h culture): 5.359 ± 0.207** mg/g bone wet weight
Bone DNA level ([2]; 10^−7 M, 48 h culture): 4.170 ± 0.057** mg/g bone wet weight
Bone DNA level ([2]; 10^−8 M, 48 h culture): 3.276 ± 0.207 mg/g bone wet weight
Bone DNA level in metaphysis tissue increased by β-cryptoxanthin: change in the presence of cycloheximide (in words) [2, 8]: significantly lowered
Effect on DNA in the bone tissue, diaphysis, after oral administration (in words) ([3]; 25 or 50 μg/100 g body weight/day, 7 days): significantly increased
Bone DNA level [3, 9]: 1.95 ± 0.18 mg/g bone wet weight
Bone DNA level [3, 10]: 3.01 ± 0.23* mg/g bone wet weight
Bone DNA level [3, 11]: 2.53 ± 0.20* mg/g bone wet weight
Effect on calcium level in the diaphysis tissue after oral administration (in words) ([4]; 10, 25 or 50 μg/100 g body weight/day, 7 days): significantly increased
Bone calcium level [4, 9]: 232.8 ± 3.00* mg/g dry weight
Bone calcium level [4, 10]: 248.3 ± 5.10* mg/g dry weight
Bone calcium level [4, 11]: 247.5 ± 4.20* mg/g dry weight
Effect on DNA level in the diaphysis tissue (in words) [5, 6]: significantly increased
Bone DNA level [5, 7]: 1.800 ± 0.025* mg/g bone wet weight
Bone DNA level ([5]; 10^−5 M, 48 h culture): 1.802 ± 0.063** mg/g bone wet weight
Bone DNA level ([5]; 10^−6 M, 48 h culture): 1.746 ± 0.016* mg/g bone wet weight
Bone DNA level ([5]; 10^−7 M, 48 h culture): 1.788 ± 0.049* mg/g bone wet weight
Bone DNA level ([5]; 10^−8 M, 48 h culture): 1.741 ± 0.099 mg/g bone wet weight
Bone DNA level in diaphysis tissue increased by β-cryptoxanthin: change in the presence of cycloheximide (in words) [5, 8]: significantly lowered
